{"source": "patent US20110306573A1", "about": "“NUCLEOSIDE DERIVATIVES AS INHIBITORS OF VIRAL POLYMERASES” (priority 2008, published 2011)", "note": "Structures can show the parent of a compound that is named as a salt."}
{"biological_target": "T1, HCV NS5B polymerase (Hepatitis C virus genotype 1b, UniProt P26663)", "T1 construct": "RNA-dependent RNA polymerase (NS5B) of the hepatitis C virus (HCV)", "T1 sequence (P26663 2420-2955)": "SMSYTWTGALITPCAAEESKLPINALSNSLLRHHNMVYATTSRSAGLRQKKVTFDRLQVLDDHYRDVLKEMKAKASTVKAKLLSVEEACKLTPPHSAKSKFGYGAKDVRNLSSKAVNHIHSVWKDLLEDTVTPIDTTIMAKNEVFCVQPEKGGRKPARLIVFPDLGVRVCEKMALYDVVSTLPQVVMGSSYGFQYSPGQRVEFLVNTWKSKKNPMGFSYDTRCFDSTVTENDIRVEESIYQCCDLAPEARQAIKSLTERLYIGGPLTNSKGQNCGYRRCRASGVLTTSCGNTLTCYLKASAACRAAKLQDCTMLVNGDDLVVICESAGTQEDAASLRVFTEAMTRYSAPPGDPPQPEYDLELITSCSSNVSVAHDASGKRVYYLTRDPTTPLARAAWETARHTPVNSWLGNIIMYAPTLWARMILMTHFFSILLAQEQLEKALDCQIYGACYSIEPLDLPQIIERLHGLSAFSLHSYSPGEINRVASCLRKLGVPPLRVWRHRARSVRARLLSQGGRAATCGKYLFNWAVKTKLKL", "experiment": "Assay for inhibition of HCV NS5B polymerase (RdRp, 3H-UTP incorporation on heteromeric RNA template)", "format": "biochemical", "details": "heterogeneous template dCoh, 2 nM DC55-lb.BK or 10 nM DC55-2b.2, NTPs 1 uM, room temperature 2 hours", "method": "The effectiveness of the compounds of the present invention as inhibitors of HCV NS5B RNA-dependent RNA polymerase (RdRp) was measured in the following assay.\nThis assay was used to measure the ability of the nucleoside derivatives of the present invention to inhibit the enzymatic activity of the RNA-dependent RNA polymerase (NS5B) of the hepatitis C virus (HCV) on a heteromeric RNA template.\nAssay Buffer Conditions: (52.5 μL-total/reaction)\n20 nM heterogeneous template dCoh\n2.5 μl/reaction inhibitor compound in H2O\nThe compounds were tested at various concentrations up to 100 μM final concentration. Nucleoside derivatives were pipetted into wells of a 96-well plate. The enzyme diluted in the reaction buffer was pipetted into the wells and incubated at room temperature for 10 minutes; then the template dCoh was added and incubated for 10 minutes at room temperature. The reaction was initiated by addition of a mixture of nucleotide triphosphates (NTP's), including the radiolabeled UTP, and allowed to proceed at room temperature for 2 hours. Blank samples were done omitting the dCoh template. The reaction was quenched by addition of 50 ul TCA 20% (trichloroacetic acid)/NaPPi 20 mM and the plates were put in ice for 5 minutes. Then, the mixtures were filtered onto Unifilter GF/B 96-well plates (PerkinElmer), washed with TCA 2.5%. 50 ul/well of scintillator solution (Microscint 20, PerkinElmer) were added and the plates were counted in a scintillator counter.\nThe percentage of inhibition was calculated according to the following equation:\n% Inhibition=[1−(cpm in test reaction−cpm in blank)/(cpm in control reaction−cpm in blank)]×100.", "units": {"IC50": "µM"}}
{"compound": "C[C@@]1(O)[C@H](O)[C@@H](COP(=O)(O)OP(=O)(O)OP(=O)(O)O)O[C@H]1n1cc(-c2ncon2)c2c(N)ncnc21", "note": "[Compound 16, 7-(2-C-methyl-5-triphospho-β-D-ribofuranosyl)-5-(1,2,4-oxadiazol-3-yl)-7H-pyrrolo[2,3-d]pyrimidin-4-amine]", "IC50": "< 1"}
{"compound": "Cn1cc(-c2cn([C@@H]3O[C@H](COP(=O)(O)OP(=O)(O)OP(=O)(O)O)[C@@H](O)[C@@]3(C)O)c3ncnc(N)c23)nn1", "note": "[Compound 17, 7-(2-C-methyl-5-triphospho-β-D-ribofuranosyl)-5-(1-methyl-1H-1,2,3-triazol-4-yl)-7H-pyrrolo[2,3-d]pyrimidin-4-amine]", "IC50": "< 50"}
{"compound": "7-(2-C-methyl-5-triphospho-β-D-ribofuranosyl)-5-(1-methyl-1H-tetrazol-5-yl)-7H-pyrrolo[2,3-d]pyrimidin-4-amine and 7-(2-C-methyl-5-triphospho-β-D-ribofuranosyl)-5-(2-methyl-2H-tetrazol-5-yl)-7H-pyrrolo[2,3-d]pyrimidin-4-amine [Compound 10]", "IC50": "< 50"}
{"compound": "C[C@@]1(F)[C@H](O)[C@@H](COP(=O)(O)OP(=O)(O)OP(=O)(O)O)O[C@H]1n1cc(-c2ncon2)c2c(N)ncnc21", "note": "[Compound 18, 7-(2-deoxy-2-fluoro-2-methyl-5-triphospho-β-D-ribofuranosyl)-5-(1,2,4-oxadiazol-3-yl)-7H-pyrrolo[2,3-d]pyrimidin-4-amine]", "IC50": "< 1"}
{"compound": "C[C@@]1(O)[C@H](O)[C@@H](COP(=O)(O)OP(=O)(O)OP(=O)(O)O)O[C@H]1n1cc(-c2cn[nH]c2)c2c(N)ncnc21", "note": "[Compound 15, 7-(2-C-methyl-5-triphospho-β-D-ribofuranosyl)-5-(1H-pyrazol-4-yl)-7H-pyrrolo[2,3-d]pyrimidin-4-amine]", "IC50": "< 50"}
{"tested_on": "subgenomic HCV Replicon in HuH-7 hepatoma cells", "experiment": "Assay for inhibition of HCV RNA replication (subgenomic replicon, in situ ribonuclease protection SPA)", "format": "cell-based, Hepatitis C Virus", "details": "Hepatitis C virus, Huh-7", "method": "(§1) The compounds of the present invention were also evaluated for their ability to affect the replication of Hepatitis C Virus RNA in cultured hepatoma (HuH-7) cells containing a subgenomic HCV Replicon. The details of the assay are described below. This Replicon assay is a modification of that described in V. Lohmann, F. Korner, J-O. Koch, U. Herian, L. Theilmann, and R. Bartenschlager, “Replication of a Sub-genomic Hepatitis C Virus RNAs in a Hepatoma Cell Line,” Science 285:110 (1999).\n(§2) The assay was an in situ Ribonuclease protection, Scintillation Proximity based-plate assay (SPA). 10,000-40,000 cells were plated in 100-200 μL of media containing 0.8 mg/mL G418 in 96-well cytostar plates (Amersham). Compounds were added to cells at various concentrations up to 100 μM in 1% DMSO at time 0 to 18 h and then cultured for 24-96 h. Cells were fixed (20 min, 10% formalin), permeabilized (20 min, 0.25% Triton X-100/PBS) and hybridized (overnight, 50° C.) with a single-stranded ^33P RNA probe complementary to the (+) strand NS5B (or other genes) contained in the RNA viral genome. Cells were washed, treated with RNAse, washed, heated to 65° C. and counted in a Top-Count Inhibition of replication was read as a decrease in counts per minute (cpm).\n(§3) Human HuH-7 hepatoma cells, which were selected to contain a subgenomic replicon, carry a cytoplasmic RNA consisting of an HCV 5′ non-translated region (NTR), a neomycin selectable marker, an EMCV IRES (internal ribosome entry site), and HCV non-structural proteins NS3 through NS5B, followed by the 3′ NTR.", "units": {"EC50": "µM"}}
{"compound": "COc1nc(-c2cn([C@@H]3O[C@H](CO)[C@@H](O)[C@@]3(C)O)c3ncnc(N)c23)cs1", "note": "[Compound 4, 5-(2-methoxy-1,3-thiazol-4-yl)-7-(2-C-methyl-β-D-ribofuranosyl)-7H-pyrrolo[2,3-d]pyrimidin-4-amine trifluoroacetate]", "EC50": "> 50"}
{"compound": "CCOC(=O)[C@H](C)NP(=O)(OC[C@H]1O[C@@H](n2cc(-c3ncco3)c3c(N)ncnc32)[C@](C)(O)[C@@H]1O)Oc1ccccc1", "note": "(stereo in doubt) [Compound 30, Ethyl 2-{[(R)-({(2R,3S,4R,5R)-5-[4-amino-5-(1,3-oxazol-2-yl)-7H-pyrrolo[2,3-d]pyrimidin-7-yl]-3,4-dihydroxy-4-methyltetrahydrofuran-2-yl}methoxy)(phenoxy)phosphoryl]amino}propanoate]", "EC50": "< 20"}
{"compound": "CCOC(=O)[C@H](C)NP(=O)(OC[C@H]1O[C@@H](n2cc(-c3ccn[nH]3)c3c(N)ncnc32)[C@](C)(O)[C@@H]1O)Oc1ccccc1", "note": "(stereo in doubt) [Compound 29, Ethyl 2-{[(R)-({(2R,3S,4R,5R)-5-[4-amino-5-(1H-pyrazol-5-yl)-7H-pyrrolo[2,3-d]pyrimidin-7-yl]-3,4-dihydroxy-4-methyltetrahydrofuran-2-yl}methoxy)(phenoxy)phosphoryl]amino}propanoate]", "EC50": "< 20"}
{"compound": "Cn1cc(-c2cn([C@@H]3O[C@H](CO)[C@@H](O)[C@@]3(C)O)c3ncnc(N)c23)nn1", "note": "[Compound 8, 7-(2-C-methyl-β-D-ribofuranosyl)-5-(1-methyl-1H-1,2,3-triazol-4-yl)-7H-pyrrolo[2,3-d]pyrimidin-4-amine trifluoroacetate]", "EC50": "20 to 50"}
{"tested_on": "subgenomic HCV Replicon in HuH-7 hepatoma cells", "experiment": "Assay for inhibition of HCV RNA replication (subgenomic replicon, in situ ribonuclease protection SPA)", "format": "cell-based, Hepatitis C Virus", "details": "Hepatitis C virus; HuH-7 cells containing a subgenomic HCV Replicon, compounds up to 100 μM in 1% DMSO, cultured 24-96 h; read-out: EC50", "method": "as §1, §2, §3", "units": {"EC50": "µM"}}
{"compound": "C[C@@]1(F)[C@H](O)[C@@H](CO)O[C@H]1n1cc(-c2ncco2)c2c(N)ncnc21", "note": "[Compound 22, 7-(2-deoxy-2-fluoro-2-methyl-β-D-ribofuranosyl)-5-(1,3-oxazol-2-yl)-7H-pyrrolo[2,3-d]pyrimidin-4-amine]", "EC50": "20 to 50"}
{"compound": "C[C@@]1(O)[C@H](O)[C@@H](CO)O[C@H]1n1cc(-c2nnco2)c2c(N)ncnc21", "note": "[Compound 27, 7-(2-C-methyl-β-D-ribofuranosyl)-5-(1,3,4-oxadiazol-2-yl)-7H-pyrrolo[2,3-d]pyrimidin-4-amine]", "EC50": "< 20"}
{"compound": "C[C@@]1(O)[C@H](O)[C@@H](CO)O[C@H]1n1nc(-c2cc[nH]n2)c2c(N)ncnc21", "note": "[Compound 25, 1-(2-C-methyl-β-D-ribofuranosyl)-3-(1H-pyrazol-3-yl)-1H-pyrazolo[3,4-d]pyrimidin-4-amine]", "EC50": "< 20"}
{"compound": "C[C@@]1(O)[C@H](O)[C@@H](CO)O[C@H]1n1cc(-c2ccn[nH]2)c2c(N)ncnc21", "note": "[Compound 5, 7-(2-C-methyl-β-D-ribofuranosyl)-5-(1H-pyrazol-5-yl)-7H-pyrrolo[2,3-d]pyrimidin-4-amine]", "EC50": "20 to 50"}
{"compound": "C[C@@]1(O)[C@H](O)[C@@H](CO)O[C@H]1n1cc(-c2cn[nH]c2)c2c(N)ncnc21", "note": "[Compound 6, 7-(2-C-methyl-β-D-ribofuranosyl)-5-(1H-pyrazol-4-yl)-7H-pyrrolo[2,3-d]pyrimidin-4-amine]", "EC50": "20 to 50"}
{"compound": "C[C@@]1(O)[C@H](O)[C@@H](CO)O[C@H]1n1cc(-c2ncco2)c2c(N)ncnc21", "note": "[Compound 2, 7-(2-C-methyl-β-D-ribofuranosyl)-5-(1,3-oxazol-2-yl)-7H-pyrrolo[2,3-d]pyrimidin-4-amine]", "EC50": "< 20"}
{"compound": "C[C@@]1(O)[C@H](O)[C@@H](CO)O[C@H]1n1cc(-c2ncccn2)c2c(N)ncnc21", "note": "[Compound 3, 7-(2-C-methyl-β-D-ribofuranosyl)-5-pyrimidin-2-yl-7H-pyrrolo[2,3-d]pyrimidin-4-amine]", "EC50": "> 50"}
{"compound": "C[C@@]1(F)[C@H](O)[C@@H](CO)O[C@H]1n1cc(-c2ncon2)c2c(N)ncnc21", "note": "[Compound 23, 7-(2-deoxy-2-fluoro-2-methyl-β-D-ribofuranosyl)-5-(1,2,4-oxadiazol-3-yl)-7H-pyrrolo[2,3-d]pyrimidin-4-amine]", "EC50": "20 to 50"}
{"compound": "C[C@@]1(O)[C@H](O)[C@@H](CO)O[C@H]1n1cc(-c2ncon2)c2c(N)ncnc21", "note": "[Compound 7, 7-(2-C-methyl-β-D-ribofuranosyl)-5-(1,2,4-oxadiazol-3-yl)-7H-pyrrolo[2,3-d]pyrimidin-4-amine]", "EC50": "< 20"}
{"compound": "C[C@@]1(F)[C@H](O)[C@@H](CO)O[C@H]1n1cc(-c2ccn[nH]2)c2c(N)ncnc21", "note": "[Compound 21, 7-(2-deoxy-2-fluoro-2-methyl-β-D-ribofuranosyl)-5-(1H-pyrazol-5-yl)-7H-pyrrolo[2,3-d]pyrimidin-4-amine]", "EC50": "20 to 50"}
{"compound": "COc1ccc(-c2cn([C@@H]3O[C@H](CO)[C@@H](O)[C@@]3(C)O)c3ncnc(N)c23)cn1", "note": "[Compound 24, 7-(2-C-methyl-β-D-ribofuranosyl)-5-(6-methoxypyridin-3-yl)-7H-pyrrolo[2,3-d]pyrimidin-4-amine]", "EC50": "> 50"}
{"compound": "C[C@@]1(O)[C@H](O)[C@@H](CO)O[C@H]1n1cc(-c2cccs2)c2c(N)ncnc21", "note": "[Compound 9, 7-(2-C-methyl-β-D-ribofuranosyl)-5-(2-thienyl)-7H-pyrrolo[2,3-d]pyrimidin-4-amine]", "EC50": "< 20"}
{"tested_on": "subgenomic HCV Replicon in HuH-7 hepatoma cells", "experiment": "Assay for inhibition of HCV RNA replication (subgenomic replicon, in situ ribonuclease protection SPA)", "format": "cell-based, Hepatitis C Virus", "details": "HuH-7 cells containing a subgenomic HCV Replicon, compounds up to 100 μM in 1% DMSO, cultured 24-96 h; read-out: EC50", "method": "as §1, §2, §3", "units": {"EC50": "µM"}}
{"compound": "7-(2-C-methyl-β-D-ribofuranosyl)-5-(1-methyl-1H-tetrazol-5-yl)-7H-pyrrolo[2,3-d]pyrimidin-4-amine (A) and 7-(2-C-methyl-β-D-ribofuranosyl)-5-(2-methyl-2H-tetrazol-5-yl)-7H-pyrrolo[2,3-d]pyrimidin-4-amine (B) [Compound 1]", "EC50": "< 20"}
